Laboratory results as given in paper PMC7937321 (Genes and Environment, 2021).
Entries after “also recorded” stand apart in the source; their conditions may differ.

Key:
TK6 cells = settings: human
Description: Briefly, test substances were dissolved in an appropriate solvent (DMSO or ethanol) and then serially diluted to prepare final concentrations. […] The 4 h and 24 h treatments were conducted by shaking and static exposures, respectively. After treatment with test substances, cells were centrifuged (1000 rpm, 5 min), supernatants were removed, and cells were washed with a serum-free medium or Hank’s Balanced Salt Solution. After centrifugation (1000 rpm, 5 min) to remove the supernatant, cells (2 × 10^7 cells) were dispersed in an RPMI medium containing 10% serum, and cell concentration was measured. Treated cells were cultured at 37 °C with 5% CO2 condition and used for TK6 assays. At that time, to calculate the cloning efficiency (CE) (Eq. 1), the cells were cultured in a 96-well microplate at a concentration of about 1.6 cells/well for 2 weeks.
CE, the cell colony formation rate, was calculated using Eq. 1 according to the Poisson distribution equation. EW was the number of wells without colonies, and TW was the total number of wells. N was the average number of cells per well (N = 1.6). 1 CE=−lnEW/TW/N
Additionally, CE was adjusted by the following calculation (Eq. 2) due to cell loss when exposure caused cytotoxicity. “The number of cells at the end of the treatment” was the number of cells obtained after centrifugation at the end of the treatment in the above-described exposure treatment of the test substance. The “cell number at the start of treatment” was 2 × 10^7. 2 AdjustedCE=CE×number of cellsatendof treatment/number of cellsatthe start of treatment
CE0 seeding, in which cells were seeded immediately after treatment, and CE3 seeding, in which cells were seeded 3 days after treatment, to examine cell viability in the TK6 assay described below. The relative cell viability RS0 (%) just after the treatment with the test substance was calculated from CE0, following Eq. 3. The survival rate of the negative control group was defined as 100%. 3 RS0%=adjusted CE0 of treatment culture/adjusted CE0 of solvent control×100
The TK6 assay is conducted between 20 and 10% RS0 as a maximum dose if cytotoxicity is observed. […] When the main TK6 assay was difficult to conduct under the condition of RS0 values from 20 to 10%, the test was conducted between 20 and 10% relative total growth (RTG), described later, as a maximum dose.
Besides RS0, relative suspension growth (RSG) and RTG as other cytotoxicity indices (Eq. 4) were used. When cells were cultured for 3 days after treatment with the test substance, suspension cell growth ratio 1 (SG1) was the growth ratio from day 0 to day 1 (cell concentration on day 1/cell concentration on day 0). The suspension cell growth ratio 2 (SG2) was the growth ratio from day 1 to day 2 (cell concentration on day 2/cell concentration on day 1). The RSG value was calculated by dividing the total SG value of the untreated group for 3 days by the total SG value of the treated group for the same 3 days (Eq. 4).
On the third day of culture, CE3 plates for determining plating efficiency and mutant frequency (MF) plates for mutation detection were prepared. CE3 plates were seeded in 96-well microplates at a concentration of about 1.6 cells/well.

rodent [1] = settings: cited from earlier work
[2] = tested on: L5178Y mouse lymphoma cells; settings: cited from earlier work
rats [3] = settings: cited from earlier work
livers of rats = settings: ref [74]; cited from earlier work
rats [4] = settings: ref [75]; cited from earlier work
LacI transgenic mice = settings: ref [77]; cited from earlier work
gpt transgenic rats = tested on: gpt transgenic rats; design: method as in PMID 20026473, doi:10.3123/jemsge.34.25; settings: ref [23], [78]; cited from earlier work
mouse organs = settings: ref [80]; cited from earlier work
[5] = tested on: TA1538, TA100, TA98, TA97, TA1535; settings: cited from earlier work
rodent [6] = settings: chromosomal Aberration test, micronucleus test, transgenic rodent gene mutation assay; ref [48], [58]–[63]; cited from earlier work
[7] = tested on: human lymphoblastoid TK6 cells, thymidine kinase gene; assay: TK gene mutation assay (TK6 assay, OECD TG490)

Cc1c(N)cccc1N [2,6-Diaminotoluene]
cytotoxicity (TK6 cells): More than 80%
carcinogenicity (rodent [1]; report of the National Toxicology Program, ref [24]): non-carcinogenic
Carcinogenicity Studies (rodent [1]; rodent, ref [20]-[41], Table 2): Neg
mutagenicity in MLA using L5178Y mouse lymphoma cells ([2]; 4 h, −S9, ref [68]): occurs
MLA (TK gene locus), Without S9 ([2]; without S9, ref [27], [46]-[53], Table 3): Pos
UDS assay (rats [3]; high dose, ref [79]): positive
unscheduled DNA synthesis (UDS) assay in rats (rats [3]; ref [76]): negative
DNA adducts in the livers of rats (livers of rats): marginal amount of adducts
hepatocellular proliferation in rats (rats [4]): negative
mutagenic assay with LacI transgenic mice (LacI transgenic mice): negative
gpt mutagenic assay with transgenic rats (gpt transgenic rats): negative
comet assay of various mouse organs (mouse organs): negative
The Highest Specific Activity and the Strain ([5]; TA100 with S9, ref Table 2): 1703 revertants/mg in TA100 with S9
Bacterial reverse mutation assay, With S9 ([5]; with S9, ref [18]-[40], Table 2): Pos
Bacterial reverse mutation assay, Without S9 ([5]; without S9, ref [18]-[40], Table 2): Neg
in vivo genotoxicity tests (rodent [6]): negative
TK6 assay result (mutant frequency increase, judgment) ([7]; 4h treatment (+S9)): Statistically significant increases of MF; also recorded: mutagenic
TK6 assay result (mutant frequency increase, judgment) ([7]; 4h treatment (-S9)): negative
TK mutation assay, Long term ([7]; 24 h, without S9): Pos
TK6 assay result (mutant frequency increase, judgment) ([7]; 24h treatment (-S9)): Statistically significant increases of MF; also recorded: positive; also recorded: mutagenic
TK6 assay overall judgment ([7]; all treatments): positive
TK mutation assay, With S9 ([7]; short-term 4 h, with rat liver S9): Pos
TK mutation assay, Without S9 ([7]; short-term 4 h, without S9): Neg
